Assay [1] deals with T1, GWT1 gene product (Gwt1 protein) in membrane fraction (Saccharomyces cerevisiae, UniProt P47026).
T1 construct: made in house; host or cells: S. cerevisiae Δgwt1 strain carrying the YEp352GAPIIClaIΔSal-GWT1 overexpression plasmid; total membrane fraction
Briefly: acylated GPI detection system (GPI acylation assay, TLC of GlcN-(acyl)PI). The assay is classed as biochemical, S. cerevisiae. The note with it: UDP-[14C]GlcNAc, TLC/autoradiography, FIGS. 3 and 4. Here is the method:
Wild-type S. cerevisiae strain, the GWT1 gene-deficient strain Δgwt1, and the strain Δgwt1 into which the GWT1 overexpression plasmid was introduced were each cultured in 100 ml of YPD medium shaken at 24° C., and then harvested in the middle logarithmic growth phase (0D600=1˜3). The fungal cells were washed with TM buffer (50 mM Tris-HCl (pH 7.5) and 2 mM MgCl2), and then suspended in 2 ml of TM buffer+protease inhibitor (1 tablet of Complete™, protease inhibitor, (Roche)/25 ml). 1.5 ml of glass beads was added to the suspension. The mixture was vortexed for 30 seconds, and then placed on ice for 30 seconds. These procedures were repeated ten times to disrupt the fungal cells. The cell homogenate was transferred into a new tube, and centrifuged at 1000 g at 4° C. for five minutes to precipitate the glass beads and undisrupted fungal cells. The supernatant was transferred to another tube, and centrifuged at 13 000g at 4° C. for 20 minutes to precipitate the membrane fraction comprising organelles (total membrane fraction). The resulting precipitate was used as the membrane fraction.
The membrane fraction preparation (300 μg protein) was diluted with a buffer consisting of 50 mM Tris-HCl (pH7.5), 2 mM MgCl2, 2 mM MnCl2, 1 mM ATP, 1 mM Coenzyme A, 21 μg/ml tunicamycin, 10 μM nikkomycin Z, and 0.5 mM Dithiothreitol. The solution was adjusted to a total of 140 μl for use as a reaction solution. After incubating the solution at 24° C. for 15 minutes, 15 μCi UDP-[^14C]GlcNAc was added to the tube and then incubated at 24° C. for another one hour. 1 ml of chloroform:methanol (1:2) was added to the solution and stirred to stop the reaction. Then, lipid was extracted from the solution, dried, and desalted by butanol extraction. Acylated GPI (GlcN-(acyl)PI), non-acylated GPI (GlcN-PI), and GPI which was neither acylated nor deacylated (GlcNAc-PI) were separated by thin-layer chromatography (HCl3/CH3OH/1 M NH4OH (10:10:3)). Each spot was detected by autoradiography. […]

A further assay has as its system GWT1 gene products. The conditions noted are these: reporter system reflecting the activity of the GWT1 gene products; cited from earlier work.

Molecules are shown by their SMILES.

T1 sequence (P47026 whole entry): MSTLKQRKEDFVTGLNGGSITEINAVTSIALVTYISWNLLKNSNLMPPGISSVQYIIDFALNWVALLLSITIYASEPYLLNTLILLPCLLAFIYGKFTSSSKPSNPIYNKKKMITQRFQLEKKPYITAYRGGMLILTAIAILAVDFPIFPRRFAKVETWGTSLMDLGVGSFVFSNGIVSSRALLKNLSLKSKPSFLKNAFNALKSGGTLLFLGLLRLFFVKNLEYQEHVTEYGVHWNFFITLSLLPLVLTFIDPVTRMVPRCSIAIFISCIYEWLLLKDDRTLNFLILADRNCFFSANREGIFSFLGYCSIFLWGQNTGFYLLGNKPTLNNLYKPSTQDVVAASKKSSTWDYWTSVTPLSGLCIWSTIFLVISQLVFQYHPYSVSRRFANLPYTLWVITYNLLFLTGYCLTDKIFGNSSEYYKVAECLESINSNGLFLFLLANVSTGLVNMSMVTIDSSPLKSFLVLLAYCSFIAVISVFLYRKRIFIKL

As for `CCCCc1ccc(Cc2nccc3ccccc23)c(O)c1` [Example B85, 5-butyl-2-(1-isoquinolylmethyl)phenol], in assay [1], the “spot intensity of acylated GPI (GlcN-(acyl)PI)” value (“spot intensity of acylated GPI” below) was “dose-dependent decrease”. As to `CCCCc1ccc(Cc2nccc3ccccc23)cc1` [Example B2, 1-(4-butylbenzyl)isoquinoline], in assay [1], the “spot intensity of acylated GPI” value was “dose-dependent decrease”. Turning to `CC(=O)N(C)CCCc1ccc(Cc2nccc3ccccc23)cc1` [Example B73, N-(3-(4-(1-isoquinolylmethyl)phenyl)propyl)-N-methylacetamide], the “inhibitory activity IC50 (Table 1 in WO 02/04626)” value in the assay with GWT1 gene products is 50 µg/mL. For the same compound, the “spot intensity of acylated GPI” value in assay [1] is listed as “not observed to decrease”.

The record behind these values is US8323917B2, “Method of screening for compounds that inhibit the enzymatic activity of GWT1 gene product” (priority 2002, dated 2012).
